For one data set, the system named is male Wistar rat. In words: Conditioned avoidance response (CAR) model. The format is in vivo. The conditions noted are these: 0.3 mg/kg, s.c. The procedure: All currently approved antipsychotic agents (typical and atypical) are known to have the ability to selectively suppress conditioned avoidance response (CAR) behavior in the rat. This evidence makes CAR one of the primary tests to assess antipsychotic activity of novel compounds.
The effects of Compound Nos. 83, 88 and 90, at concentrations including 0.1, 0.3, 1, 3, 10 and 20 mg/kg, p.o., in the conditioned avoidance response model were assessed in the male Wistar rat. Risperidone (0.3 mg/kg, s.c.) was used in the present study as a positive reference compound.
For each testing session, animals were first placed for a 4-min. habituation period in a shuttlebox with an electrified grid floor. Then, rats were submitted to 30 trials spaced by intertribal intervals varying at random between 20 and 30 sec. Each trial consisted of a 10-sec. light stimulus (conditioned stimulus, CS) followed by a 10-sec. electric foot shock (unconditioned stimulus, US) in presence of the light presented in the compartment where the rat is located. If the animal moved to the other compartment during the initial 10-sec. of the trial, the light was terminated (no shock was delivered) and the response was recorded as an avoidance response. If the rat changed compartment during the foot shock, the light and the shock were terminated and the response was recorded as an unconditioned response. […] If a response was made during an intertrial interval, the response was recorded as an intertrial crossing. Training was performed 5 days per week with one session of 30 trials per day, until rats reached the performance criterion of 80% of avoidance response on at least two consecutive daily sessions. […] A minimal wash-out period of 48 hours was allowed between 2 treatments. During the wash-out period, animals were trained until they recovered an avoidance performance of at least 80%.
Statistical analysis was performed using a Friedman two-way ANOVA by ranks followed by the Wilcoxon matched-pairs signed-ranks test to test each dose of the test compound administered versus vehicle control treated rats.

For data set [1], the target named is T1, histamine receptor H1 (Homo sapiens, UniProt P35367). In words: Inhibition of binding of a ligand (Pyrilamine) to histamine receptor H1. As to conditions: as compared to the unsubstituted vinyl counterpart (106 vs compound 415; 85 vs compound 95). The procedure:
The number and extent of undesirable side effects increases with increasing affinity for the H1 receptor Thus, in one aspect, compounds of the formulae herein display reduced, low or no affinity to histamine receptor H1. […] Inhibition of binding of a ligand to H1 for all variations detailed herein is determined by a suitable assay known in the art such as the assay described herein. […] In one variation, compounds of the formulae herein inhibit binding of a ligand to H1 by between about 50% to about 80%. […] In one variation, compounds of the formulae herein inhibit binding of Pyrilamine to H1 as determined in the assay described herein. In a further variation, percent inhibition of binding to H1 is measured by assays detailed herein.
The binding properties of compounds disclosed herein to a panel of aminergic G protein-coupled receptors including adrenergic receptors, dopamine receptors, serotonin receptors, histamine receptors and an imidazoline receptor may be determined. Binding properties may be assessed by methods known in the art, such as competitive binding assays. In one variation, compounds are assessed by the binding assays detailed herein. […]
In one aspect, DDT compounds display low affinity to histamine receptor H1. […] Inhibition of binding of a ligand to H1 for all variations detailed herein is determined by a suitable assay known in the art such as the assay described herein. […]

Data set [2] addresses T1, histamine receptor H1. In words: Histamine H1 radioligand binding ([3H]Pyrilamine). The method, boiled down: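 Values are percent inhibition of specific [3H]pyrilamine (1.2 nM) binding with compounds at ≤1 μM (1% DMSO vehicle); 180 min incubation at 25 °C, pH 7.4 Tris buffer, on CHO-expressed human H1 receptor; 1 μM pyrilamine defined nonspecific binding, bound ligand counted after filtration.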

Data set [3] addresses human dopamine D2L receptor (Homo sapiens, UniProt P14416). Nature of the data set: Dopamine D2L radioligand binding ([3H]Spiperone). As to conditions: percent inhibition of specific binding, compound at 1 μM. The text has this:
Non-specific binding was estimated in the presence of […] Haloperidol. Receptor proteins were filtered and washed, the filters were then counted to determine [^3H]Spiperone specifically bound. […] Biochemical assay results are presented as the percent inhibition of specific binding in Table 9.

The target in data set [4] is T2, human recombinant serotonin (5-Hydroxytryptamine) 5-HT2A receptor (Homo sapiens, UniProt P28223).
T2 construct: expressed in transfected cells; host or cells: Chinese hamster ovary (CHO-K1) cells
Nature of the data set: Serotonin 5-HT2A radioligand binding ([3H]Ketanserin). The procedure:
Compounds of the invention were incubated with 0.5 nM [^3H]Ketanserin for 60 min. at 25° C. Non-specific binding was estimated in the presence of 1 μM Mianserin. Receptor proteins were filtered and washed, the filters were then counted to determine [^3H]Ketanserin specifically bound.

The target in data set [5] is T3, human recombinant serotonin (5-Hydroxytryptamine) 5-HT2C receptor (Homo sapiens, UniProt P28335).
T3 construct: expressed in transfected cells; host or cells: Chinese hamster ovary (CHO-K1) cells
T3 sequence (P28335 33-458): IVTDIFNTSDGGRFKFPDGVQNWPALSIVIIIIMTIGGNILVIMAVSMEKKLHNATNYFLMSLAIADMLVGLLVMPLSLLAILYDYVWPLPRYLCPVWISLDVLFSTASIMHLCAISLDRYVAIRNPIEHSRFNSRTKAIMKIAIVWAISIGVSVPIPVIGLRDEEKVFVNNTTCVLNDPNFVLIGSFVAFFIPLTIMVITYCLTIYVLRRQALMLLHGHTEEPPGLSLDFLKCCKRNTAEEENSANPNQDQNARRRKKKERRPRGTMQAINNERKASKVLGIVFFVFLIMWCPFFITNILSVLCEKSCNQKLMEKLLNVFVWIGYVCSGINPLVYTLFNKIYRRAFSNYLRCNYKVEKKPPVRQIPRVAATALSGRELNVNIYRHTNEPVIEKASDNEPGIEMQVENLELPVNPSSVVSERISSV
Nature of the data set: Serotonin 5-HT2C radioligand binding ([3H]Mesulergine). As to conditions: compound at 0.1 μM; read-out: Inhibition of ligand binding, Serotonin 5-HT2C (percent inhibition of specific binding). The method, boiled down: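 Compounds tested at 1 μM or lower (1% DMSO vehicle) for displacement of 1 nM [3H]Mesulergine over 60 min at 25° C. Specific binding determined by filtration counting, with 1 μM Mianserin defining non-specific binding; values are percent inhibition.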

Data set [6] has as its target T4, human recombinant serotonin (5-Hydroxytryptamine) 5-HT6 receptor (Homo sapiens, UniProt P50406).
T4 construct: expressed in transfected cells; host or cells: human HeLa cells
In words: Serotonin 5-HT6 radioligand binding ([3H]LSD). As for the experimental part: Compounds of the invention were incubated with 1.5 nM [3H]Lysergic acid diethylamide (LSD) for 120 min. at 37° C. […] Receptor proteins were filtered and washed, the filters were then counted to determine [3H]LSD specifically bound. Compounds were screened at 1 μM or lower, using 1% DMSO as vehicle. Biochemical assay results are presented as the percent inhibition of specific binding in Table 10.

Another data set deals with C57B1I6J mice. In words: Catalepsy in the mouse bar test (EPS model). The class given is in vivo. The conditions noted are these: 2 mg/kg i.p. An excerpt:
Antipsychotic drugs are known to induce extrapyramidal syndrome (EPS) in animals and in humans. An animal model considered to be predictive of EPS is the mouse bar test, which measures cataleptic responses to pharmacological agents.
Male C57B1I6J mice from Jackson Laboratories (Bar Harbor, Me.) were used. Mice were received at 6-weeks of age. Upon receipt, mice were assigned unique identification numbers (tail marked) and were group housed with 4 mice/cage in OptiMICE ventilated cages. All animals remained housed in groups of four during the remainder of the study. All mice were acclimated to the colony room for at least two weeks prior to testing and were subsequently tested at an average age of 8 weeks. During the period of acclimation, mice were examined on a regular basis, handled, and weighed to assure adequate health and suitability. Animals were maintained on a 12 h/12 h light/dark cycle. The room temperature was maintained between 20 and 23° C. with a relative humidity maintained between 30% and 70%. Chow and water were provided ad libitum for the duration of the study. In each test, animals were randomly assigned across treatment groups.
The following compounds were used for this study. 1) Compound No. 83, 88 or 90 (0.03, 0.1, 0.3, 1, 3, 10, 30) was dissolved in 3% Tween in PBS and administered orally at a dose volume of 10 mL/kg; 2) Haloperidol (2 mg/kg) was dissolved in 10% DMSO and administered i.p. at a dose volume of 10 mL/kg.
The front paws of a mouse were placed on a horizontal metal bar raised 2″ above a Plexiglas platform and time was recorded for up to 30 seconds per trial. The test ended when the animal's front paws returned to the platform or after 30 seconds. The test was repeated three times and the average of the three trials was reported as the intensity index of catalepsy. Antipsychotic agents such as haloperidol cause rigidity as a side effect. Animals treated with haloperidol will hold on to the bar without moving for several minutes. Mice were brought to the activity experimental room for at least 1 h acclimation to the experimental room conditions prior to testing. Following injection of either vehicle, Compound No. 83, 88 or 90, or haloperidol, catalepsy was assessed at 3 time points: 30 min, 1 h, and 3 h. At the end of each trial, the apparatus was thoroughly cleaned with 70% ethanol.
Data were analyzed by analysis of variance (ANOVA) followed by post-hoc comparisons with Fisher Tests when appropriate. An effect was considered significant if p<0.05.

T4 sequence (P50406 whole entry): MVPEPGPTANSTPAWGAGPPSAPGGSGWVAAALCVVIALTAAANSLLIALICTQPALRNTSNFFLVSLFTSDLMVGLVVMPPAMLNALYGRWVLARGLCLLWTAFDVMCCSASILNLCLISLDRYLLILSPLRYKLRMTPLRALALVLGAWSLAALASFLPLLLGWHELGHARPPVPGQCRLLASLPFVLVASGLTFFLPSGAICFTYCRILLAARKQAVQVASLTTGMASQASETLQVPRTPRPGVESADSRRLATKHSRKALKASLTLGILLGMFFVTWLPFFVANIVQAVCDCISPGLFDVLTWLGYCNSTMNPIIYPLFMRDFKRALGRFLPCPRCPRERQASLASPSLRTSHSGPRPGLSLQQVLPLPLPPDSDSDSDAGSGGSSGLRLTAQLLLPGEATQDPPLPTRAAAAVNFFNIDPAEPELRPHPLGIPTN
T1 sequence (P35367 whole entry): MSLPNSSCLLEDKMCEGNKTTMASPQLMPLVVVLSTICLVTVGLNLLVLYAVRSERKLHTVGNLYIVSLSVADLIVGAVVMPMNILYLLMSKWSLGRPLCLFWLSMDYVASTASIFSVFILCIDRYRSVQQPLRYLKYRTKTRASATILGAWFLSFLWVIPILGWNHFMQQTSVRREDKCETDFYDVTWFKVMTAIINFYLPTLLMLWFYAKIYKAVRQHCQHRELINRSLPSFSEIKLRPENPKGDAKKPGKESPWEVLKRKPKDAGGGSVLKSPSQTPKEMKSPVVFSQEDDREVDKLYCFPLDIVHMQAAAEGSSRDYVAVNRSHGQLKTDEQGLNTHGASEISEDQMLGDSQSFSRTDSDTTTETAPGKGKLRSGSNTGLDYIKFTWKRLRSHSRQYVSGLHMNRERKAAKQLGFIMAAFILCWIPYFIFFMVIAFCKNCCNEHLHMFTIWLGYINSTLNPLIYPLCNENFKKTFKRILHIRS
human dopamine D2L receptor, sequence (P14416 whole entry): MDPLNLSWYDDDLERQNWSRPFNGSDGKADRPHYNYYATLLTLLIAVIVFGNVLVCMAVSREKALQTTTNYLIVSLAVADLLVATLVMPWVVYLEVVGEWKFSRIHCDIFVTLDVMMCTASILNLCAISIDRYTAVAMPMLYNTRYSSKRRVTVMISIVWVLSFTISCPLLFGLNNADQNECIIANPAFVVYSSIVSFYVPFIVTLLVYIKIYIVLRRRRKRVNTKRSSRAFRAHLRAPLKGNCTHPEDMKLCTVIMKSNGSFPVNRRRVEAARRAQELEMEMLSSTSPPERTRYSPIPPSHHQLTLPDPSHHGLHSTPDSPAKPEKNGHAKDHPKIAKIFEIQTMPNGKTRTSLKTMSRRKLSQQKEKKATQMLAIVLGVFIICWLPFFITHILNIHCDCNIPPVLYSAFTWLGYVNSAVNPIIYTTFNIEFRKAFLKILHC
T2 sequence (P28223 whole entry): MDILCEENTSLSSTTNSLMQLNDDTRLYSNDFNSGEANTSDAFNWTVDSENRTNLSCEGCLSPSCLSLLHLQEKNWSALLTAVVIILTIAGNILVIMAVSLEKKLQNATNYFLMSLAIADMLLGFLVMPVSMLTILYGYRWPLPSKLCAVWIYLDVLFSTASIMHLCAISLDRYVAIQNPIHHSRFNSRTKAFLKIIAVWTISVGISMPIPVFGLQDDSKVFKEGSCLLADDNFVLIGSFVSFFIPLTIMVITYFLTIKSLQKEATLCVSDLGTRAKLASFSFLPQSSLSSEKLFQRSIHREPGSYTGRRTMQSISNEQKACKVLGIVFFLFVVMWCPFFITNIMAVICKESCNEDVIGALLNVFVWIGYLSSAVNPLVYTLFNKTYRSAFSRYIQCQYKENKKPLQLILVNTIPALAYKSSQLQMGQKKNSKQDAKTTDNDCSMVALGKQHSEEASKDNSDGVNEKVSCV

Regarding `Cc1nc2n(c(=O)c1CCN1CCC(c3noc4cc(F)ccc34)CC1)CCCC2` [risperidone, reference compound], in the data set on male Wistar rat, the “number of avoidance responses, change versus pretreatment” value is listed as −61% and the “number of intertrial crossings, change versus pretreatment” value is listed as −69%. Further, the “number of escape failures” value with male Wistar rat (increased in 7/12 animals, 0±0 before treatment) turned out to be 4±1 escape failures.
`C/C(=C\n1c2c(c3cc(C)ccc31)CN(C)CC2)c1ccc(C)nc1` [compound 85, (E)-2,3,4,5-tetrahydro-2,8-dimethyl-5-(2-(6-methylpyridin-3-yl)prop-1-enyl)-1H-pyrido[4,3-b]indole]: the “binding affinity to H1” value on histamine receptor H1 [1] is recorded as “lower binding affinity to H1”. In addition, on histamine receptor H1 [2] (1 μM), the “Histamine Binding (1 μM) H1, percent inhibition of specific binding” value was 13%. In addition, the inhibition at 1 µM on histamine receptor H1 [2] (read-out: Histamine Binding (1 μM) H1, percent inhibition of specific binding, 1 μM) was 9%; in data set [3] (read-out: Inhibition of ligand binding, Dopamine D2L) it was 43%; in data set [6] (compound at 1 μM, read-out: Inhibition of ligand binding, Serotonin 5-HT6 (percent inhibition of specific binding)) it was 68%. In addition, the “Inhibition of ligand binding, Dopamine D2L” value in data set [3] (1 µM) is 57%. Moreover, the “Inhibition of ligand binding, Serotonin 5-HT2A (percent inhibition of specific binding)” value in data set [4] (compound at 0.1 μM, 0.1 µM) was 98%. Moreover, the inhibition at 0.1 µM in data set [4] (read-out: Inhibition of ligand binding, Serotonin 5-HT2A (percent inhibition of specific binding), compound at 0.1 μM) is 88%; in data set [5], 92%; in data set [6] (compound at 0.1 μM, read-out: Inhibition of ligand binding, Serotonin 5-HT6 (percent inhibition of specific binding)), 22%. For the same compound, the “Inhibition of ligand binding, Serotonin 5-HT6 (percent inhibition of specific binding)” value in data set [6] (compound at 0.1 μM, 0.1 µM) is 19%.
Regarding `O=C(CCCN1CCC(O)(c2ccc(Cl)cc2)CC1)c1ccc(F)cc1` [Haloperidol, haloperidol, reference compound], the “catalepsy (bar test)” value in the data set with C57B1I6J mice is “increased catalepsy”.

As usually defined, the inhibition is the change of the read-out against control, counted positive when it falls.

The values are drawn from patent US8906925B2, “Pyrido[4,3-B]indoles containing rigid moieties” (Medivation Technologies, Inc., priority 2008, dated 2014).
